What follows are compounds tested against T1, acetylcholine muscarinic M1 receptor (Homo sapiens, UniProt P11229) (assay: muscarinic FLIPR assay: intracellular calcium in CHOnfat/hM1 cells, potentiation of EC20 acetylcholine). Settings: IP = inflection point calculated from FLIPR values, 4 min preincubation, then EC20 acetylcholine (3 nM final).
T1 construct: expressed in transfected cells; host or cells: CHOnfat cells (CHO with NFAT reporter background), Geneticin-selected
T1 sequence (P11229 1-460): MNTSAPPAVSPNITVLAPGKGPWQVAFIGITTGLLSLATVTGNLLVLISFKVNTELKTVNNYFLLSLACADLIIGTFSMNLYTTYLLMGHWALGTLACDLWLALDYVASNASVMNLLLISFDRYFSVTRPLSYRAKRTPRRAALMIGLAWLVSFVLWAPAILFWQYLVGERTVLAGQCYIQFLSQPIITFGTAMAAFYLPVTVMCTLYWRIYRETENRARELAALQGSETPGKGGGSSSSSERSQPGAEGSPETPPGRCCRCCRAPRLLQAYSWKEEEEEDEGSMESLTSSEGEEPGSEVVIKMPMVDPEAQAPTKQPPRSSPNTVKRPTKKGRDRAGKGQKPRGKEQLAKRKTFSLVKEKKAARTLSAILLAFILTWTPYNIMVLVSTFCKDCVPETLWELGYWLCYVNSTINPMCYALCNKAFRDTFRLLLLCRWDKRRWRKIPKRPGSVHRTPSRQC
Format: cell-based
Description: The assay studies the effect of one or several concentrations of test compounds on basal or acetylcholine-stimulated Ca^2+ levels using FLIPR.
Compounds are prepared and subjected to a preincubation period of 4 min. Thereafter, a single EC20 concentration of acetylcholine is added to each well (3 nM final). The intracellular Ca^2+ level of each sample is measured and compared to an acetylcholine control to determine any modulatory activity.
Cells: CHOnfat/hM1, hM2, hM3 or hM4 cells are plated 24 hr before the assay at a density of 18,000 cells/well (100 μL) in a 384 well plate. CHOnfat/hM1 and CHOnfat/hM3 Growth Medium: 90% DMEM (Hi Glucose); 10% HI FBS; 2 mM L-glutamine; 0.1 mM NEAA; Pen-Strep; and 1 mg/ml Geneticin, are added. For M2Gqi5CHOnfat and M4Gqi5CHOnfat cells, an additional 600 ug/ml hygromycin is added.
Equipment: 384 well plate, 120 μL addition plate; 96-well Whatman 2 ml Uniplate Incubator, 37° C., 5% CO2; Skatron EMBLA-384 Plate Washer; Multimek Pipetting System; Genesis Freedom 200 System; Mosquito System; Temo Nanoliter Pipetting System; and FLIPR^384 Fluorometric Imaging Plate Reader System are used.
Buffers. Assay Buffer: Hanks Balanced Salt Solution, with 20 mM Hepes, 2.5 mM Probenecid (Sigma P-8761) first dissolved in 1 N NaOH, 1% Bovine Serum Albumin (Sigma A-9647). Dye Loading Buffer: Assay Buffer plus 1% Fetal Bovine Serum and Fluo-4AM/Pluronic Acid Mixture. 2 mM Fluo-4AM ester stock in DMSO (Molecular Probes F-14202) Concentration of 2 μM in buffer for a final concentration of 1 μM in Assay. 20% Pluronic Acid Solution stock, with concentration of 0.04% in Buffer, 0.02% in Assay.
65 μL of 2 mM Fluo-4AM are mixed with 130 μL of 20% Pluronic Acid. The resulting solution and 650 μL FBS is added to the assay buffer for a total volume of 65 mL. Positive Controls: 4-Br-A23187: 10 mM in DMSO; final concentration […]. Acetylcholine: 10 mM in water, working stock at both 20 μM and 30 μM in assay buffer, final concentration of 10 μM. This is used to check the maximum stimulation of the CHOK1/hM1 cells. 20 μM (2×) acetylcholine is added in the preincubation part of the assay, and the 30 μM (3×) stock is added in the second part. (EC20)Acetylcholine: 10 mM in water, working stock of 9 nM (3×), and final concentration in assay is 3 nM. This is used after the preincubation with test compounds. Addition of the EC20 Acetylcholine to each well with a test compound will ascertain any modulator activity. 24 wells contain 3 nM Acetylcholine alone as a control.
Determining Activity of Putative Compounds:
Screening Plate Compounds are titrated in 96-well plates (columns 2-11), 100% DMSO, started at a concentration of 15 mM (150× stock concentration), and 3-fold serial dilutions using Genesis Freedom200 System. Four 96-well plates are combined into a 384-well plate using Mosquito Nanoliter Pipetting System by transferring 1 μl of serial diluted compounds to each well, and 1 mM acetylcholine (100× stock concentration) were added as a control. Using Temo, 49 μl assay buffer is added to each well of the 384-well plate right before assay.
In a 96-well Whatman 2 ml Uniplate, 9 nM Acetylcholine (3×) is pipetted into wells corresponding to the screening compounds, and into control wells. The 30 μM acetylcholine control (3×) is added into control wells, and the 3× agonist plate is transferred into a 384 well plate.
Cells are washed three times with 100 μL of buffer, leaving 30 μL of buffer in each well. Using Multimek, 30 μL of Dye Loading Buffer is added into each well and incubated at 37° C., 5% CO2 for up to one hr.
After 60 min, the cells are washed three times with 100 μL of buffer, leaving 30 μL of buffer in each well. The cell plate, screening plate, and agonist addition plates are placed on the platform in the FLIPR and the door closed. A signal test to check background fluorescence and basal fluorescence signal is performed. Laser intensity is adjusted if necessary. […]

Row | EC50 [nM] | SMILES
1 | 11 | C=Cc1ccc(Cc2cc3c(c4ccccc24)CN([C@H]2CCCC[C@@H]2O)C3=O)cn1 [Example 3, 2-[(1S,2S)-2-Hydroxycyclohexyl]-5-[(6-vinylpyridin-3-yl)methyl]-1,2-dihydro-3H-benzo[e]isoindol-3-one]
2 | 12 | O=C1c2cc(Cc3ccc(Cl)nc3)c3ccccc3c2CN1[C@H]1CCOC[C@@H]1O [Example 8, 5-[(6-Chloropyridin-3-yl)methyl]-2-[(3R,4S)-3-hydroxytetrahydro-2H-pyran-4-yl]-1,2-dihydro-3H-benzo[e]isoindol-3-one]
3 | 144 | COc1ccc(Cc2cc3c(c4ccccc24)CN(c2ncccc2C(F)(F)F)C3=O)cn1 [Example 14, 5-[(6-Methoxypyridin-3-yl)methyl]-2-[3-(trifluoromethyl)pyridin-2-yl]-1,2-dihydro-3H-benzo[e]isoindol-3-one]
